Active and inactive are the calls of the source.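 How the source made its calls: active means compounds whose fitted half-effect growth-inhibition concentration is no more than twice their top tested dose; inconclusive means flat curve showing moderate inhibition, or an unreliable curve fit; inactive means the rest.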
System: not listed separately
Assay: S. cerevisiae growth inhibition on glycerol, dose response, glycerol medium, OD600, dry powder (AID 602184)
Details: S. cerevisiae growth in glycerol medium, OD600, 48 h; at 19.5 µM (top of the series)

SMILES	activity change, negative = growth inhibition
COc1ccc(-c2nnc(NC(=O)c3ccc(S(=O)(=O)N4CCCc5ccccc54)cc3)o2)cc1	-22.8% (inactive)
Oc1c(C(c2ccc(Cl)cc2)N2CCCC2)ccc2cccnc12 (centres undefined)	-8.5% (inactive)
Cc1cc(C)n(-c2nc3ccccc3c(=O)n2OCC#N)n1	-14.8% (inactive)
O=C(Nc1nc(-c2ccc3c(c2)CCCC3)cs1)c1ccccc1	-4.76% (inactive)
O=C(Nc1nc(-c2ccccc2)cs1)c1ccc(Br)s1	-11.7% (inactive)
NC(=O)c1cccc(C(=O)Nc2nc(-c3ccc4c(c3)CCCC4)cs2)c1	-13.9% (inactive)
Cc1ccc(C(=O)Nc2nnc(-c3ccccc3)o2)cc1C	-3.03% (inactive)

Same assay, conditions: S. cerevisiae growth in glycerol medium, OD600, 48 h; at 23.5 µM (top of the series)

SMILES	activity change, negative = growth inhibition
Oc1c(CN2CCN(c3ccccc3)CC2)cc(Cl)c2cccnc12	-52.9% (inactive)

System: S. cerevisiae growth in glycerol medium, OD600, 48 h
Assay: as above
Details: not given

SMILES	AC50
O=C(Nc1nnc(-c2ccc3c(c2)CCCC3)o1)c1ccccc1	16.1 µM
Oc1c(C(c2ccccc2Cl)N2CCCCC2)ccc2cccnc12 (centres undefined)	21.8 µM
CCCC(=O)NC(c1cccs1)c1cc(Cl)c2cccnc2c1O (centres undefined)	10.6 µM
O=C(Nc1nnc(-c2ccc3c(c2)CCCC3)o1)c1ccc(Cl)cc1Cl	14.8 µM
C=CCNC(=S)N/N=C(\C)c1ccccn1	8.88 µM
CN1CCN(C(c2ccc(C(F)(F)F)cc2)c2ccc3cccnc3c2O)CC1 (centres undefined)	3.1 µM
C/C(=N\NC(=O)c1cc2ccccc2cc1O)c1ccccn1	14.4 µM
CCOC(=O)N1C(=O)C2(CCCCC2)N(c2ccc(C)cc2)C1=S	< 0.08 µM
Cc1ccc(C(=O)Nc2nc(-c3ccccn3)cs2)cc1	6.34 µM
Oc1c(CN2CCc3ccccc3C2)cc(Cl)c2cccnc12	8.17 µM
O=C(Oc1c(Cl)cc(Cl)c2cccnc12)c1ccco1	0.64 µM
O=C(Nc1nc(-c2ccccn2)cs1)c1ccc(Br)s1	1.01 µM
Cc1ccc(-c2nc3c(Cl)cc(Cl)cc3c(=O)n2O)cc1	3.71 µM
O=C(Nc1nc(-c2ccccn2)cs1)c1ccc(Cl)s1	1.55 µM
O=C(Nc1nc(-c2ccccn2)cs1)c1ccccc1	18.9 µM
O=C(NNC(=S)Nc1ccc(Cl)c(Cl)c1)c1ccccn1	12.7 µM
